Reference: the supplement of paper PMC10307832

Assays:
Experiment in all cases: relative viability (nuclei count vs DMSO), 5 days (fraction); higher = more cells survive
LU99A = tested on: LU99A
Method in brief: (§1)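 For relative viability, nuclei counts in treated wells were divided by those in vehicle wells. Lung cancer cell lines had been pin-tool dosed in 1536-well plates the day after seeding and cultured for 5 days, then fixed and stained in one step (final 0.05% Triton X-100, 1% formaldehyde, 1 ug/ml Hoechst) and imaged at 4×. Doses were one drug alone or a fixed anchor-drug dose plus five library-drug doses (not always all listed) in √10 steps, and values are duplicate-plate medians.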

COR-L23 = tested on: COR-L23
Method in brief: as §1

HCC-827 = tested on: HCC-827
Method in brief: as §1

201T = tested on: 201T
Method in brief: as §1

HCC-15 = tested on: HCC-15
Method in brief: as §1

NCI-H1755 = tested on: NCI-H1755
Method in brief: as §1

NCI-H1734 = tested on: NCI-H1734
Method in brief: as §1

BEN = tested on: BEN
Method in brief: as §1

NCI-H1944 = tested on: NCI-H1944
Method in brief: as §1

NCI-H1993 = tested on: NCI-H1993
Method in brief: as §1

HCC-78 = tested on: HCC-78
Method in brief: as §1

LXF-289 = tested on: LXF-289
Method in brief: as §1

O=C(O)CCCCC(CCSCc1ccccc1)SCc1ccccc1 (configuration not stated) [CPI-613] + COc1cc2c(Oc3ccc(NC(=O)C4(C(=O)Nc5ccc(F)cc5)CC4)cc3F)ccnc2cc1OCCCN1CCOCC1 [Foretinib] (partner 0.25 µM)
relative viability (LU99A; first compound 158.11 µM): 0.461
relative viability (LU99A; first compound 500 µM): 0.112
relative viability (COR-L23; first compound 5 µM): 0.983
relative viability (COR-L23; first compound 15.81 µM): 0.995
relative viability (COR-L23; first compound 50 µM): 0.714
relative viability (COR-L23; first compound 158.11 µM): 0.614
relative viability (COR-L23; first compound 500 µM): 0.0368
relative viability (HCC-827; first compound 5 µM): 1.04
relative viability (HCC-827; first compound 15.81 µM): 1.02
relative viability (HCC-827; first compound 50 µM): 1
relative viability (HCC-827; first compound 158.11 µM): 0.416
relative viability (HCC-827; first compound 500 µM): 0.312
relative viability (201T; first compound 5 µM): 1.12
relative viability (201T; first compound 15.81 µM): 1.03
relative viability (201T; first compound 50 µM): 1.11
relative viability (201T; first compound 158.11 µM): 0.329
relative viability (201T; first compound 500 µM): 0.0557
relative viability (HCC-15; first compound 5 µM): 0.974
relative viability (HCC-15; first compound 15.81 µM): 1
relative viability (HCC-15; first compound 50 µM): 1.01
relative viability (HCC-15; first compound 158.11 µM): 0.236
relative viability (HCC-15; first compound 500 µM): 0.039
relative viability (NCI-H1755; first compound 5 µM): 0.886
relative viability (NCI-H1755; first compound 15.81 µM): 0.878
relative viability (NCI-H1755; first compound 50 µM): 0.898
relative viability (NCI-H1755; first compound 158.11 µM): 0.887
relative viability (NCI-H1755; first compound 500 µM): 0.175
relative viability (NCI-H1734; first compound 5 µM): 0.792
relative viability (NCI-H1734; first compound 15.81 µM): 0.984
relative viability (NCI-H1734; first compound 50 µM): 0.859
relative viability (NCI-H1734; first compound 158.11 µM): 0.332
relative viability (NCI-H1734; first compound 500 µM): 0.104
relative viability (BEN; first compound 5 µM): 0.728
relative viability (BEN; first compound 15.81 µM): 0.443
relative viability (BEN; first compound 50 µM): 0.602
relative viability (BEN; first compound 158.11 µM): 0.499
relative viability (BEN; first compound 500 µM): 0.508
relative viability (NCI-H1944; first compound 5 µM): 0.923
relative viability (NCI-H1944; first compound 15.81 µM): 0.878
relative viability (NCI-H1944; first compound 50 µM): 0.967
relative viability (NCI-H1944; first compound 158.11 µM): 0.649
relative viability (NCI-H1944; first compound 500 µM): 0.0567
relative viability (NCI-H1993; first compound 5 µM): 0.829
relative viability (NCI-H1993; first compound 15.81 µM): 0.78
relative viability (NCI-H1993; first compound 50 µM): 0.961
relative viability (NCI-H1993; first compound 158.11 µM): 0.509
relative viability (NCI-H1993; first compound 500 µM): 0.452
relative viability (HCC-78; first compound 5 µM): 0.497
relative viability (HCC-78; first compound 15.81 µM): 0.554
relative viability (HCC-78; first compound 50 µM): 0.545
relative viability (HCC-78; first compound 158.11 µM): 0.52
relative viability (HCC-78; first compound 500 µM): 0.473
relative viability (LXF-289; first compound 5 µM): 0.974
relative viability (LXF-289; first compound 15.81 µM): 0.919
relative viability (LXF-289; first compound 50 µM): 0.898
relative viability (LXF-289; first compound 158.11 µM): 0.226
relative viability (LXF-289; first compound 500 µM): 0.0507
